Measurements reported in PubChem BioAssay (NCI).
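Values below derive from 48-hour exposures of cells grown in 96-well plates, with endpoints linearly interpolated between the two concentrations bracketing the appropriate inhibition level. Here, GI50 denotes the concentration required for 50% inhibition of growth. Definition used: TGI = concentration required for complete inhibition of growth.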

What was measured:
Assay in all cases: inhibition of tumour cell growth, NCI panel, 48 h
HOP-62 NSCLC = test system: HOP-62 NSCLC
MDA-MB-435 = test system: MDA-MB-435
PC-3 prostate = test system: PC-3 prostate
SF-539 CNS = test system: SF-539 CNS
SK-MEL-5 melanoma = test system: SK-MEL-5 melanoma
SK-OV-3 ovarian = test system: SK-OV-3 ovarian
SW-620 colon = test system: SW-620 colon
UO-31 renal = test system: UO-31 renal
A549 NSCLC = test system: A549 NSCLC
MALME-3M melanoma = test system: MALME-3M melanoma

SMILES | GI50 (HOP-62 NSCLC) [µM] | TGI (HOP-62 NSCLC) [µM] | GI50 (MDA-MB-435) [µM] | TGI (MDA-MB-435) [µM] | GI50 (PC-3 prostate) [µM] | TGI (PC-3 prostate) [µM] | GI50 (SF-539 CNS) [µM] | TGI (SF-539 CNS) [µM] | GI50 (SK-MEL-5 melanoma) [µM] | TGI (SK-MEL-5 melanoma) [µM] | GI50 (SK-OV-3 ovarian) [µM] | TGI (SK-OV-3 ovarian) [µM] | GI50 (SW-620 colon) [µM] | TGI (SW-620 colon) [µM] | GI50 (UO-31 renal) [µM] | TGI (UO-31 renal) [µM] | TGI (A549 NSCLC) [µM] | TGI (MALME-3M melanoma) [µM] | GI50 (A549 NSCLC) [µM] | GI50 (MALME-3M melanoma) [µM]
CNCc1ccc(-c2cc(-c3nc(-c4ccc(S(=O)(=O)C(C)C)cc4)cnc3N)on2)cc1 | 4.56 | 22.6 | 1.35 | 2.79 | 1.97 | 8.32 | 0.502 | 1.88 | 2.59 | 12.3 | 6.57 | 24.7 | 1.43 | 3.78 | 1.35 | 14 | – | – | – | –
COc1cc(/C=C2\NC(=O)C(Cc3cc(OC)c(OC)c(C)c3OC)N(C(C)=O)C2=O)c(OC)c(C)c1OC (stereo unspecified) | – | > 100 | – | – | – | – | – | > 100 | – | > 100 | – | > 100 | – | > 100 | – | > 100 | > 100 | > 100 | – | –
O=C1N[C@@H]2CCCC[C@@H]2C12CCCCC2 | – | > 100 | – | – | – | – | – | > 100 | – | – | – | > 100 | – | > 100 | – | > 100 | > 100 | > 100 | – | –
CC(=O)OCC(=O)[C@@]1(O)CC[C@H]2[C@@H]3C[C@H](C)C4=CC(=O)C=C[C@]4(C)[C@@]3(F)[C@@H](O)C[C@@]21C | – | > 100 | – | – | – | – | – | > 100 | – | > 100 | – | > 100 | – | > 100 | – | > 100 | > 100 | > 100 | – | –
CC12OC(=O)C(C#N)C1(C)C1C(=O)CCCC12 (stereo unspecified) | – | – | – | – | – | – | – | > 100 | – | > 100 | – | > 100 | – | > 100 | – | > 100 | > 100 | > 100 | – | –
Cc1ccccc1C(CCCO)C(=O)O (stereo unspecified) | – | > 100 | – | – | – | – | – | > 100 | – | > 100 | – | > 100 | – | > 100 | – | > 100 | > 100 | > 100 | – | –
CC1NOC(=O)C1N=Nc1ccc(Cl)cc1Cl (stereo unspecified) | – | > 100 | – | – | – | – | – | > 100 | – | 73.2 | – | 77.2 | – | 21.2 | – | 51 | 65.9 | 56.8 | – | –
CCc1cccc(CC)c1NC(=O)/C(Cl)=C(/Cl)C(=O)O | – | > 100 | – | – | – | – | – | 49.2 | – | > 100 | – | > 100 | – | 46.8 | – | 47.3 | > 89.6 | 36.7 | – | –
CC(=O)[CH-]C(=O)c1ccccc1.[C-]#[O+].[C-]#[O+].[Ir] | – | – | – | – | – | – | > 100 | > 100 | > 100 | > 100 | > 100 | > 100 | > 100 | > 100 | > 100 | > 100 | > 100 | > 100 | > 100 | > 100
O=[N+]([O-])c1ccc(-c2ccc(C3=Nn4c(CNc5ccccc5Cl)nnc4SC3)o2)cc1 | – | > 100 | – | – | – | – | – | > 100 | – | – | – | > 100 | – | > 100 | – | > 100 | > 100 | > 100 | – | –
OC(c1ccccc1Br)(c1ccccc1Br)C(F)(F)F | – | 52.8 | – | – | – | – | – | > 100 | – | – | – | > 100 | – | 36.2 | – | 75.1 | > 100 | 52.3 | – | –
COc1ccc2nc(NC(=O)C(=O)CC(=O)c3ccc([N+](=O)[O-])cc3)sc2c1 | – | > 100 | – | – | – | – | – | > 100 | – | > 100 | – | > 100 | – | > 100 | – | > 100 | > 100 | > 100 | – | –
COc1cc(/C=C/c2cc(/C=C/c3ccc(O)c(OC)c3)n(C(=O)c3ccccc3Br)n2)ccc1O | 3.41 | 16.3 | 0.687 | 8.06 | 3.02 | 66.9 | – | – | 2.56 | 13.3 | 2.24 | 5.31 | 3.66 | > 100 | 2.36 | 34.1 | 45.3 | 43.6 | 3.05 | 3.27
CC(=O)Nc1ccc(C2CC(c3ccc([N+](=O)[O-])cc3)=Nc3ccccc3S2=O)cc1 (stereo unspecified) | – | 49.8 | – | – | – | – | – | 70.2 | – | 48.4 | – | 70.5 | – | 62.4 | – | 46.5 | > 100 | – | – | –
O=C1C2C3C=CC(C2C(=O)N1CO)C1C2C(=O)N(CO)C(=O)C2C31 (stereo unspecified) | – | > 100 | – | – | – | – | – | > 100 | – | > 100 | – | > 100 | – | > 66.7 | – | > 100 | > 88.4 | > 100 | – | –
C[C@H](C(=O)O)C(=O)NC(=O)N(Cc1ccccc1)N=O | – | > 100 | – | – | – | – | – | > 100 | – | > 100 | – | > 100 | – | > 100 | – | > 100 | > 100 | > 100 | – | –
CC(=O)Oc1c(C(=O)[O-])cc(C(C)C)cc1C(C)C.CC(=O)Oc1c(C(=O)[O-])cc(C(C)C)cc1C(C)C.CC(=O)Oc1c(C(=O)[O-])cc(C(C)C)cc1C(C)C.CC(=O)Oc1c(C(=O)[O-])cc(C(C)C)cc1C(C)C.[Cu+2].[Cu+2] | 25 | 54.4 | 3.18 | 9.16 | 57.3 | > 100 | 72.3 | > 100 | 18 | 32.9 | 14.4 | 35.4 | 42.1 | > 100 | 50.7 | > 100 | > 100 | – | 32.4 | –
O=C(CCCC(=O)Nc1ccc(Cl)cc1Cl)CC(=O)c1ccc2ccccc2c1 | – | > 100 | – | – | – | – | – | > 100 | – | > 100 | – | > 100 | – | > 100 | – | > 100 | > 100 | > 100 | – | –
CCSCC1CC(O)(c2ccccc2)C(c2ccccc2)C(c2ccc(F)cc2)O1 (stereo unspecified) | 2.08 | 4.52 | 1.98 | 5.24 | 1.95 | 9.06 | 1.6 | 3.07 | 1.47 | 2.82 | 2.7 | 9.15 | 1.81 | 4.32 | 1.71 | 6.46 | 6.35 | – | 2.15 | –
COc1ccc2c(C(=O)O)cc3ccccc3c2c1OC | – | > 100 | – | – | – | – | – | 57.7 | – | – | – | > 100 | – | 36.4 | – | 30.9 | > 100 | 41.9 | – | –
COc1ccc(-c2nc3ccc(Cc4ccc5nc(-c6ccc(OC)cc6)[nH]c5c4)cc3[nH]2)cc1 | 0.0291 | 2.07 | < 0.01 | 0.0202 | 0.0428 | 1.2 | 0.022 | 0.0707 | 0.0193 | 1.27 | 0.0314 | 1.89 | < 0.0151 | 0.173 | 0.217 | 2.09 | 0.237 | – | 0.0438 | –
